Experimental data taken from patent publication US20090030179A1, “ANTIMICROBIAL PEPTIDE AND USE THEREOF” (TOAGOSEI CO., LTD, priority 2005, published 2009).
Residues, ends and D or L forms follow the SMILES beside them.

What was measured:
[1] = test system: Gram-negative bacteria (Escherichia coli); format: cell-based; details: for Antimicrobial Activities (MIC) E. coli: Gram-negative bacteria, 24 h
Description: (§1) Regarding the antimicrobial peptides (samples 1 to 12) and the peptide of comparative sample 1 related to the present invention, their antimicrobial activities (minimum inhibitory concentration: MIC) against Gram-negative bacteria (Escherichia coli) and Gram-positive bacteria (Staphylococcus aureus) were determined, as described below, by liquid medium dilution method using a 96-well microplate. […] The prepared liquid broth media containing the peptide at each concentration described above were then loaded onto 96-well microplates in 100-μL aliquots. At the same time, the tested bacteria cultured for 18 hours at 37° C. on an agar plate (“Muller Hinton Agar” manufactured by DIFCO) were collected by scraping with a loop, and then suspended in sterilized physiological saline. 5 μL of bacterial suspension prepared to be equivalent to 2×10^7 cells/mL was inoculated (number of bacteria to be tested: approximately 1×10^6 cells/mL) into each well of the above-described microplate filled with the liquid broth media containing the peptide at each concentration. After inoculation, the microplate was then incubated in an incubator at 37° C., and the presence of bacteria was evaluated based on the turbidity after 24 hours. The minimum drug concentration (polypeptide concentration), at which no increase in bacterial turbidity was detected at the time of measurement, was defined as MIC (minimum inhibitory concentration) (unit: μM) in the present embodiment.

[2] = test system: Gram-positive bacteria (Staphylococcus aureus); format: cell-based; details: for Antimicrobial Activities (MIC) S. aureus: Gram-positive bacteria, 24 h
Description: as §1

Molecule	Antimicrobial Activities (MIC) E. coli [1]	Antimicrobial Activities (MIC) S. aureus [2]	antimicrobial activity (in words), E. coli ([1]; summary of Table 2)	antimicrobial activity (in words), S. aureus ([2]; summary of Table 2)
CC(C)C[C@H](NC(=O)[C@H](CS)NC(=O)[C@H](CCCNC(=N)N)NC(=O)[C@H](CCC(=O)O)NC(=O)[C@H](CCCCN)NC(=O)[C@H](CC(C)C)NC(=O)[C@@H](N)[C@@H](C)O)C(=O)N[C@@H](CCC(N)=O)C(=O)N[C@H](C(=O)N[C@H](C(=O)N[C@@H](CCCNC(=N)N)C(=O)N[C@@H](CO)C(=O)N[C@@H](CC(C)C)C(=O)N[C@H](C(=O)N[C@@H](CCCCN)C(N)=O)C(C)C)C(C)C)C(C)C [Sample 1, TLKERCLQVVRSLVK]	6.25 µM	3.13 µM		
CC[C@H](C)[C@H](NC(=O)[C@H](Cc1c[nH]cn1)NC(=O)[C@H](CCC(N)=O)NC(=O)[C@H](CC(C)C)NC(=O)[C@@H](N)CO)C(=O)N[C@@H](CS)C(=O)N[C@@H](CCCNC(=N)N)C(=O)N[C@H](C(=O)N[C@H](C(=O)N[C@H](C(=O)N[C@@H](CS)C(=O)N[C@@H](CC(N)=O)C(=O)N[C@@H](CS)C(=O)N[C@H](C(=O)N[C@H](C(N)=O)[C@@H](C)O)[C@@H](C)O)[C@@H](C)CC)C(C)C)[C@@H](C)O [Sample 7, SLQHICRTVICNCTT] (H-SLQHICRTVICNCTT-NH2)		50 µM		
CC[C@H](C)[C@H](NC(=O)[C@H](Cc1ccc(O)cc1)NC(=O)[C@H](CCC(N)=O)NC(=O)[C@H](CC(C)C)NC(=O)[C@@H](N)CO)C(=O)N[C@@H](CS)C(=O)N[C@@H](CCCNC(=N)N)C(=O)N[C@@H](C)C(=O)N[C@H](C(=O)N[C@H](C(=O)N[C@@H](CS)C(=O)N[C@@H](CCCNC(=N)N)C(=O)N[C@@H](CS)C(=O)N[C@H](C(=O)N[C@H](C(N)=O)[C@@H](C)O)[C@@H](C)O)[C@@H](C)CC)C(C)C [Sample 8, SLQYICRAVICRCTT] (H-SLQYICRAVICRCTT-NH2)		50 µM		
H-PLAHLCRLRVRKAIG-NH2 [Sample 11, PLAHLCRLRVRKAIG]		12.5 µM		
H-SLKHLCRKALRSFLT-NH2 [Sample 10, SLKHLCRKALRSFLT]		12.5 µM		
H-SLQHICRMSIRRVMS-NH2 [Sample 3, SLQHICRMSIRRVMS]	12.5 µM	6.25 µM		
H-SLQHLCRFRIRQLVR-NH2 [Sample 9, SLQHLCRFRIRQLVR]		12.5 µM		
H-SLQYLCRFVIRQYTR-NH2 [Sample 2, SLQYLCRFVIRQYTR]	25 µM	6.25 µM		
H-SLTHLCRLEIRSSIK-NH2 [Sample 12, SLTHLCRLEIRSSIK]		25 µM		
H-TLHQQCIRVLKNNID-NH2 [Comparative Sample 1, TLHQQCIRVLKNNID, reference compound]	>200 µM	>200 µM	no antimicrobial activity was detected	no antimicrobial activity was detected
H-TLKKRCLQVVRKLVK-NH2 [Sample 5, TLKKRCLQVVRKLVK]	3.13 µM	3.13 µM		
H-TLLSLCRVAVRRALG-NH2 [Sample 4, TLLSLCRVAVRRALG]	6.25 µM	1.56 µM		
H-TLQHLCRKTVNGHLD-NH2 [Sample 6, TLQHLCRKTVNGHLD]		50 µM		
